Data set [1] has as its system MV4-11. Description: Antiproliferative activity against human MV4-11 cells after 48 hrs by CellTiter-Glo assay. The format is functional, cell-based. Conditions: MV4-11, 48 h. On the technique in general: ATP-based viability assays read luminescence as a measure of living cells.
In data set [2] the test system is MOLM-13. As to the kind of experiment: Antiproliferative activity against human MOLM13 cells after 48 hrs by CellTiter-Glo assay. The format is functional, cell-based. Particulars: MOLM-13, 48 h.
The target in data set [3] is T1, Receptor-type tyrosine-protein kinase FLT3 (Homo sapiens, UniProt P36888).
T1 sequence (P36888 whole entry): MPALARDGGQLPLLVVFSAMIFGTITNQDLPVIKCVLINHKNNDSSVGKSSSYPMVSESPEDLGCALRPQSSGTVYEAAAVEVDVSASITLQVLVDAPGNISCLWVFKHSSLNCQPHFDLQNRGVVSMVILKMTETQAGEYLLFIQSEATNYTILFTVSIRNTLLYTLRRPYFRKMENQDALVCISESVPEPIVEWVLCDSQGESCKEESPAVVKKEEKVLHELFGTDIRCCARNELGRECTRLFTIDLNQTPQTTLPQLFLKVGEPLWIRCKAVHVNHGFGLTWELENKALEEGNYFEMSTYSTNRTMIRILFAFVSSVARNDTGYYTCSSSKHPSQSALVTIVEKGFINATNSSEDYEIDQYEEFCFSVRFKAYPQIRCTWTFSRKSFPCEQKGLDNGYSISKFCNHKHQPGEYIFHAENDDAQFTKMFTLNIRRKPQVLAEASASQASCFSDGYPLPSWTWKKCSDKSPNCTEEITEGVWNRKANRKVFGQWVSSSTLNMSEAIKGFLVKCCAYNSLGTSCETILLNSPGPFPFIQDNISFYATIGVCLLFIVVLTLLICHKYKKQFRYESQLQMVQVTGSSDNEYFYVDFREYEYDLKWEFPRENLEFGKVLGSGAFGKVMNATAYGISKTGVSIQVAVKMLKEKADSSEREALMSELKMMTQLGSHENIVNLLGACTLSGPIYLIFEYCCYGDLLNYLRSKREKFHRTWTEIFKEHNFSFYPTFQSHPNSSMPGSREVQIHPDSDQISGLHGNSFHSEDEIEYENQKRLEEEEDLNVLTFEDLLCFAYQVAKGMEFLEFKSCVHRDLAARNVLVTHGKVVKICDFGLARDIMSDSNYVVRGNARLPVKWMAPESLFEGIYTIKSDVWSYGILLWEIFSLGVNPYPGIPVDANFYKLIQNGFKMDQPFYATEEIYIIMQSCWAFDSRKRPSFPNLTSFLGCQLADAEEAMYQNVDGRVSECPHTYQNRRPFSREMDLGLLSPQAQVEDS
As to the kind of experiment: Inhibition of wild type FLT3 (unknown origin) expressed in mouse BAF3 cells. The format is cell-based.

Data set [4] deals with MV4-11. Description: Antitumor activity against human MV4-11 cells xenografted in SCID/beige mouse assessed as tumor growth inhibition at 50 mg/kg administered daily relative to control. Conditions: read-out: TGI. The format is functional. In general terms: Xenograft models place foreign cells or tissue in a host animal.
The subject of data set [5] is MV4-11. As to the kind of experiment: Antitumor activity against human MV4-11 cells xenografted in SCID/beige mouse assessed as tumor growth inhibition at 75 mg/kg administered daily relative to control. Particulars: read-out: TGI. The format is functional.
Data set [6] deals with MV4-11. Description: Antitumor activity against human MV4-11 cells xenografted in SCID/beige mouse assessed as tumor growth inhibition at 100 mg/kg administered daily relative to control. The format is functional. Conditions: read-out: TGI.
A short description of data set [7]: Oral bioavailability in dog. The format is ADME, organism-based, Canis lupus familiaris. Conditions: in vivo.
A short description of data set [8]: Oral bioavailability in monkey. The format is ADME, organism-based, Macaca mulatta. Conditions: rhesus monkey, in vivo.
For data set [9], the system named is MV4-11. As to the kind of experiment: Cytotoxicity against human MV4-11 cells expressing FLT3 ITD mutant. The format is functional, cell-based.
Data set [10] relates to MOLM-13. As to the kind of experiment: Cytotoxicity against human MOLM13 cells expressing FLT3 ITD mutant. The format is functional, cell-based.
Another data set concerns MOLM-14. As to the kind of experiment: Cytotoxicity against human MOLM14 cells. The format is functional, cell-based.
Data set [11] concerns MOLM-13. As to the kind of experiment: Cytotoxicity against human MOLM13 cells. The format is functional, cell-based.
Data set [12] concerns MV4-11. As to the kind of experiment: Cytotoxicity against human MV4-11 cells. The format is functional, cell-based.
The target of data set [13] is Serine/threonine-protein kinase pim-2 (Homo sapiens, UniProt Q9P1W9). Description: Binding affinity to Pim-2 (unknown origin).
Sequence of Serine/threonine-protein kinase pim-2 (Q9P1W9 whole entry): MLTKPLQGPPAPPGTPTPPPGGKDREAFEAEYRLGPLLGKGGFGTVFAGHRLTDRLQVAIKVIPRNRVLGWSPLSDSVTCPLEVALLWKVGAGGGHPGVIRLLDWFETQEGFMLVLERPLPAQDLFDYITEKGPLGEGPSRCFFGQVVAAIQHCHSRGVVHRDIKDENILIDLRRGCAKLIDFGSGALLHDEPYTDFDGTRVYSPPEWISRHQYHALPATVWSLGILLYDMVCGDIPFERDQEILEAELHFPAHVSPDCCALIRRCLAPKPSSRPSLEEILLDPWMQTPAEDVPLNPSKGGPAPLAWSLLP
Data set [14] has as its target Serine/threonine-protein kinase pim-3 (Homo sapiens, UniProt Q86V86). As to the kind of experiment: Binding affinity to Pim-3 (unknown origin).
The target in data set [15] is T1, Receptor-type tyrosine-protein kinase FLT3. As to the kind of experiment: Binding affinity to FLT3 (unknown origin).
For data set [16], the target named is Serine/threonine-protein kinase pim-1 (Homo sapiens, UniProt P11309). Description: Binding affinity to Pim-1 (unknown origin).
Sequence of Serine/threonine-protein kinase pim-1 (P11309 whole entry): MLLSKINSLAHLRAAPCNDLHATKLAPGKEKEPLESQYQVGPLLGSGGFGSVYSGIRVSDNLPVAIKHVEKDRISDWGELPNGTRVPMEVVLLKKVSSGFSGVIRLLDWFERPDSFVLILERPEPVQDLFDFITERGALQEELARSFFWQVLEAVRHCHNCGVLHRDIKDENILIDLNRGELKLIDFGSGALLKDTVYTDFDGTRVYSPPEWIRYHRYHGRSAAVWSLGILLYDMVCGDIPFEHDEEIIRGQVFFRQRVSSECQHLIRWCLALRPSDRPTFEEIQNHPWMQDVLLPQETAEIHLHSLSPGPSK
The nature of data set [17]: Cytotoxicity against mouse Ba/F3 FLT3-D835Y cells by trypan blue dye exclusion method. Conditions: BaF3. The format is functional, cell-based.
A short description of data set [18]: Cytotoxicity against mouse BAF3(transformed) cells harboring D835G mutant by trypan blue dye exclusion method. The format is functional, cell-based.
Data set [19] concerns the target Dual specificity mitogen-activated protein kinase kinase 1 (Homo sapiens, UniProt Q02750). As to the kind of experiment: Inhibition of MEK1 (unknown origin) phosphorylation by [gamma-33P]-ATP assay.
In data set [20] the target is T1, Receptor-type tyrosine-protein kinase FLT3. As to the kind of experiment: Inhibition of FLT3 (unknown origin) phosphorylation by [gamma-33P]-ATP assay.

Sequence of Dual specificity mitogen-activated protein kinase kinase 1 (Q02750 whole entry): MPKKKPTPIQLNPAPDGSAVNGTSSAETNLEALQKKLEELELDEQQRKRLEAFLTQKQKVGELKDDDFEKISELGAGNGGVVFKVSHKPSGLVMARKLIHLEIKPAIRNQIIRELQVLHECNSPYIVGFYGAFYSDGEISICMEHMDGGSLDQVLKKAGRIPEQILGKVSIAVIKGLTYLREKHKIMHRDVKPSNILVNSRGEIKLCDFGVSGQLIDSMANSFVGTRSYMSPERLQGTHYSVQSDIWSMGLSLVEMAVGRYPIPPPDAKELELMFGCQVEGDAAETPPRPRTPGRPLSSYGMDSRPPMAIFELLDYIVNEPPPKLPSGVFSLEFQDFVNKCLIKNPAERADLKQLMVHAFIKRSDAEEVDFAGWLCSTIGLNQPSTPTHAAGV

As a reminder, the IC50 is the concentration that gives 50% inhibition. In the case of `C1=N/C2=N/c3ccc(OCCN4CCCC4)c(c3)COC/C=C/COCc3cccc(c3)C(=C1)N2` [PACRITINIB], the IC50 in the data set with MV4-11 [1] was 0.067 µM; in the data set on MOLM-13 [2], 0.047 µM.

For the compound `COc1cccc2nc(-c3cccs3)nc(NN3C(=O)C=C(C)C3=O)c12` [AS-602868], the IC50 in data set [3] is 0.618 µM.

On to `CC(C)n1c(C2CCNCC2)nc2c([N+](=O)[O-])c(Br)c(Br)cc21` [DAPOLSERTIB], for which the inhibition in vivo at 50 mg/kg in the data set on MV4-11 [4] worked out at 67%. Besides, in the data set with MV4-11 [5], the inhibition in vivo at 75 mg/kg was found to be 74%. In the data set on MV4-11 [6], the inhibition in vivo at 100 mg/kg was 82%.

For orientation: bioavailability means dose-corrected exposure relative to a reference, in per cent. Take `COc1cc2c(N3CCN(C(=O)Nc4ccc(OC(C)C)cc4)CC3)ncnc2cc1OCCCN1CCCCC1` [TANDUTINIB]: the bioavailability in data set [7] was 50%; in data set [8] it was 100%.

As for `CC1(COc2ccc3c(c2)ncn3-c2ccc3cccc(N4CCC(N)CC4)c3n2)COC1` [CRENOLANIB], the figures for the IC50 with MV4-11 [9] and in the data set with MOLM-13 [10] were 0.0015 µM and 0.0049 µM, respectively.

As a reminder, the EC50 is the midpoint of the concentration-response curve. For `Cc1n[nH]c2ccc(-c3cncc(OC[C@@H](N)Cc4ccccc4)c3)cc12`, the EC50 with MOLM-14 is 0.06 µM; with MOLM-13 [11] it was 0.17 µM; in the data set on MV4-11 [12] it was 0.092 µM.

Broadly, the Kd is the free concentration of one partner at which half of the binding sites on the other are occupied at equilibrium, for simple one-to-one binding. Consider `C[C@]12O[C@H](C[C@H](O)[C@H]1O)n1c3ccccc3c3c4c(c5c6ccccc6n2c5c31)C(=O)NC4=O`, for which the Kd in data set [13] was 0.0031 µM; in [14], 0.0004 µM; in data set [15], 0.0032 µM; in data set [16] it was 0.0029 µM.

With `CCNc1cc(O)c2c(c1)/C=C/C[C@H](O)[C@H](O)C(=O)/C=C\[C@@H](C)[C@H](C)OC2=O` [E-6201], the IC50 was 26 µM in data set [17], 4.6 µM in data set [18], 0.05 µM in data set [19] and 0.005 µM in data set [20].

The values are drawn from ChEMBL document CHEMBL4359824, “Dual FLT3 inhibitors: Against the drug resistance of acute myeloid leukemia in recent decade” (Eur J Med Chem, 2019).
